# Data as given in patent US4892736A, “Intra-pocket drug delivery devices for treatment of periodontal diseases” (The Forsyth Dental Infirmary for Children, priority 1988, dated 1990).
# Where a name gives a salt, the structure may show the parent alone.
# Tested on: cultivable periodontal microorganisms
# Test: Concentration of tetracycline necessary to suppress growth of all cultivable periodontal microorganisms (agar plates)
# Type: cell-based
# Conditions: anaerobic, 35° C., 5 to 7 days
# Method: Samples containing periodontal organisms taken from deep periodontal pockets of 5 patients were transferred to 10 ml of pre-reduced Ringer's solution, dispersed by 10 seconds of sonic oscillation at an amplitude of 10 microns, and dilutions of 1:20, 1:100, and 1:1000 were prepared. One-tenth milliliter of each dilution was streaked on trypticase soy agar containing 5% sheep blood and 0.3 μg/ml menadione in petri dishes. Identical plates were prepared containing 1, 8, 32, and 64 micrograms/milliliter of tetracycline hydrochloride. Inoculated plates were incubated at 35° C. in an anaerobic atmosphere at 80% nitrogen, 10% hydrogen, and 10% carbon dioxide for 5 to 7 days. Plates from dilutions providing separated colony growth were selected for counting to determine the total colony forming units on primary medium and each associated tetracycline-containing medium. Percentages of organisms grown at each concentration were computed. Values of 21.2%, 3.6%, 0.08%, and 0% were found on plates containing 1, 8, 32, and 64 micrograms/milliliter tetracycline respectively. These observations indicate that no cultivable periodontal organisms grow at tetracycline concentrations of 64 micrograms/milliliter, thereby establishing the primary design parameter for a local drug delivery system for periodontal therapy which would suppress growth of all cultivable periodontal microorganisms with continuous exposure of the organisms to tetracycline.
compound,measurement,setting,value
"CN(C)C1C(=O)C(C(N)=O)=C(O)C2(O)C(=O)C3=C(O)c4c(O)cccc4C(C)(O)C3CC12 (centres unmarked) [tetracycline, tetracycline hydrochloride]",activity at 1 µg/mL,"168 h, 1 microgram/milliliter tetracycline, % of colony forming units on primary medium, read-out: Percentage of organisms grown",21.2%
same,activity at 8 µg/mL,"168 h, 8 micrograms/milliliter tetracycline, % of colony forming units on primary medium, read-out: Percentage of organisms grown",3.6%
same,activity at 32 µg/mL,"168 h, 32 micrograms/milliliter tetracycline, % of colony forming units on primary medium, read-out: Percentage of organisms grown",0.08%
same,activity at 64 µg/mL,"168 h, 64 micrograms/milliliter tetracycline, % of colony forming units on primary medium, read-out: Percentage of organisms grown",0%
same,MIC,"tested 1, 8, 32, 64 micrograms/milliliter, read-out: Concentration at which no cultivable periodontal organisms grow",64 µg/mL
